Data published in ChEMBL document CHEMBL1201862, “PubChem BioAssay data set” (2004).
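Dose response: 5 concentrations. Exposure: 48 h. Format: 96-well plates. Endpoint: linear interpolation; highest concentration if not reached. Abbreviation: GI50, concentration required for 50% inhibition of growth.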 The source made the active and inactive calls. No stated cut-off is given here; in the data, active = GI50 up to about 1.1 µM and inactive = higher.

Experiments:
Assay in all cases: NCI-60 cell line screen, 48 h
[1] = system: OVCAR-4
[2] = system: CCRF-CEM
[3] = system: SK-MEL-2
[4] = system: NCI/ADR-RES
[5] = system: SNB-19
[6] = system: U-251
[7] = system: OVCAR-3
[8] = system: A498
[9] = system: MOLT-4
[10] = system: SNB-75
[11] = system: SF-539
[12] = system: SK-MEL-5
[13] = system: RPMI-8226
[14] = system: SF-268
[15] = system: COLO 205
[16] = system: UO-31
[17] = system: TK-10
[18] = system: M14
[19] = system: CAKI-1

Row | Structure (SMILES) | GI50 [1] | GI50 [2] | GI50 [3] | GI50 [4] | GI50 [5] | GI50 [6] | GI50 [7] | GI50 [8] | GI50 [9] | GI50 [10] | GI50 [11] | GI50 [12] | GI50 [13] | GI50 [14] | GI50 [15] | GI50 [16] | GI50 [17] | GI50 [18] | GI50 [19]
1 | O=[N+]([O-])c1ccc(Nc2cccc3c4cc[nH]c(-c5ccccc5)c-4nc23)c([N+](=O)[O-])c1 | > 100 µM (inactive) | 41.4 µM (inactive) | > 100 µM (inactive) | > 100 µM (inactive) | > 100 µM (inactive) | > 100 µM (inactive) | > 100 µM (inactive) | > 100 µM (inactive) | 5.82 µM (inactive) | > 100 µM (inactive) | > 100 µM (inactive) | > 100 µM (inactive) | > 100 µM (inactive) | > 100 µM (inactive) | > 100 µM (inactive) | > 100 µM (inactive) | – | – | –
2 | COc1nc(N)c(NC(C)=O)c(=O)n1C | > 100 µM (inactive) | > 100 µM (inactive) | > 100 µM (inactive) | – | > 100 µM (inactive) | > 100 µM (inactive) | – | > 100 µM (inactive) | > 100 µM (inactive) | > 100 µM (inactive) | > 100 µM (inactive) | – | > 100 µM (inactive) | > 100 µM (inactive) | > 100 µM (inactive) | > 100 µM (inactive) | > 100 µM (inactive) | > 100 µM (inactive) | > 100 µM (inactive)
3 | CCOC(=O)/C(C#N)=C(N)/C(=N\Nc1cccc(C(F)(F)F)c1)C(=O)OCC | > 100 µM (inactive) | > 100 µM (inactive) | > 100 µM (inactive) | – | > 100 µM (inactive) | > 100 µM (inactive) | > 100 µM (inactive) | > 100 µM (inactive) | > 100 µM (inactive) | > 100 µM (inactive) | > 100 µM (inactive) | > 100 µM (inactive) | > 100 µM (inactive) | > 100 µM (inactive) | > 100 µM (inactive) | > 100 µM (inactive) | > 100 µM (inactive) | > 100 µM (inactive) | > 100 µM (inactive)
4 | COC(=O)C1CC2(c3ccccc3)C(=O)c3ccccc3N2O1 (configuration not stated) | > 100 µM (inactive) | 30.3 µM (inactive) | 39.3 µM (inactive) | – | > 100 µM (inactive) | 69.2 µM (inactive) | 70.6 µM (inactive) | > 100 µM (inactive) | 22.1 µM (inactive) | 40.5 µM (inactive) | 67 µM (inactive) | 74.8 µM (inactive) | 17.7 µM (inactive) | > 100 µM (inactive) | 98.4 µM (inactive) | – | > 100 µM (inactive) | > 100 µM (inactive) | 36.5 µM (inactive)
5 | CCOC(=O)C(C)NC(=O)N(C)C12CC3CC(CC(C3)C1)C2 (configuration not stated) | 175 µM (inactive) | 138 µM (inactive) | 169 µM (inactive) | 151 µM (inactive) | 412 µM (inactive) | 308 µM (inactive) | 149 µM (inactive) | 116 µM (inactive) | 63.2 µM (inactive) | 77.4 µM (inactive) | 344 µM (inactive) | 111 µM (inactive) | 125 µM (inactive) | 319 µM (inactive) | 140 µM (inactive) | 175 µM (inactive) | – | – | 231 µM (inactive)
6 | CC12CCC3C(CCC4(O)C=CCCC34C=O)C1(O)CC(O)C2c1ccc(=O)oc1 (configuration not stated) | 0.0611 µM (active) | 0.0526 µM (active) | 0.111 µM (active) | 0.0679 µM (active) | 0.127 µM (active) | 0.08 µM (active) | 0.0625 µM (active) | 0.054 µM (active) | < 0.05 µM (active) | 0.0713 µM (active) | < 0.05 µM (active) | 0.0565 µM (active) | 0.0697 µM (active) | < 0.05 µM (active) | 0.113 µM (active) | 0.0685 µM (active) | – | – | 0.0578 µM (active)
7 | CCOC(=O)c1csc(-c2nc(CCNC(=O)c3ccccc3)sc2Cl)n1 | – | 30.5 µM (inactive) | – | 41.1 µM (inactive) | > 100 µM (inactive) | 73.8 µM (inactive) | 45.8 µM (inactive) | 15.4 µM (inactive) | 34.3 µM (inactive) | 49.4 µM (inactive) | > 100 µM (inactive) | 42.7 µM (inactive) | 44 µM (inactive) | 60 µM (inactive) | 77.3 µM (inactive) | 61.2 µM (inactive) | > 100 µM (inactive) | 58.5 µM (inactive) | –
8 | CN(C)CCNc1c([N+](=O)[O-])cc2c3c(cccc13)C(=O)N(CCN(C)C)C2=O | 0.807 µM (active) | 0.893 µM (active) | 1.77 µM (inactive) | 1.54 µM (inactive) | 1.59 µM (inactive) | 1.82 µM (inactive) | 1.79 µM (inactive) | 1.67 µM (inactive) | 0.476 µM (active) | 1.7 µM (inactive) | 2.16 µM (inactive) | 2.18 µM (inactive) | 2.33 µM (inactive) | 2.2 µM (inactive) | 1.11 µM (active) | 1.58 µM (inactive) | – | – | 2.13 µM (inactive)
9 | CC1CCCP(=O)(c2ccccc2)CC1 (configuration not stated) | > 100 µM (inactive) | > 100 µM (inactive) | > 100 µM (inactive) | – | > 100 µM (inactive) | > 100 µM (inactive) | > 100 µM (inactive) | > 100 µM (inactive) | > 100 µM (inactive) | > 100 µM (inactive) | > 100 µM (inactive) | > 100 µM (inactive) | > 100 µM (inactive) | > 100 µM (inactive) | > 100 µM (inactive) | > 100 µM (inactive) | > 100 µM (inactive) | > 100 µM (inactive) | > 100 µM (inactive)
10 | COc1cc(/C=C(\C#N)C(N)=O)cc(Br)c1O | > 100 µM (inactive) | > 100 µM (inactive) | > 100 µM (inactive) | > 100 µM (inactive) | > 100 µM (inactive) | > 100 µM (inactive) | > 100 µM (inactive) | – | > 100 µM (inactive) | – | > 100 µM (inactive) | > 100 µM (inactive) | 70 µM (inactive) | > 100 µM (inactive) | – | 96.6 µM (inactive) | – | – | > 100 µM (inactive)
11 | Cc1ccc(NC(=O)/C(CC(=O)c2c[n+]([O-])c3ccccc3[n+]2[O-])=N\NC(=O)C[n+]2ccccc2)cc1 | 64.1 µM (inactive) | > 100 µM (inactive) | > 100 µM (inactive) | – | > 100 µM (inactive) | > 100 µM (inactive) | > 100 µM (inactive) | > 100 µM (inactive) | > 100 µM (inactive) | > 100 µM (inactive) | > 100 µM (inactive) | > 100 µM (inactive) | > 100 µM (inactive) | > 100 µM (inactive) | > 100 µM (inactive) | > 100 µM (inactive) | > 100 µM (inactive) | > 100 µM (inactive) | > 100 µM (inactive)
12 | CCOC(=O)C1S/C(=N\c2ccc(C)c(C)c2)N=C1C (configuration not stated) | > 100 µM (inactive) | > 100 µM (inactive) | > 100 µM (inactive) | – | > 100 µM (inactive) | > 100 µM (inactive) | > 100 µM (inactive) | > 100 µM (inactive) | > 100 µM (inactive) | 66.8 µM (inactive) | > 100 µM (inactive) | 52.7 µM (inactive) | 85.7 µM (inactive) | > 100 µM (inactive) | > 100 µM (inactive) | > 100 µM (inactive) | > 100 µM (inactive) | > 100 µM (inactive) | > 100 µM (inactive)
13 | Cc1c(C2=NN=C(/N=N/c3c(O)cccc3O)/C2=C/c2ccccc2)c(=O)n(-c2ccccc2)n1C | > 100 µM (inactive) | > 100 µM (inactive) | > 100 µM (inactive) | > 100 µM (inactive) | > 100 µM (inactive) | > 100 µM (inactive) | > 100 µM (inactive) | > 100 µM (inactive) | > 100 µM (inactive) | > 100 µM (inactive) | > 100 µM (inactive) | > 100 µM (inactive) | > 100 µM (inactive) | > 100 µM (inactive) | > 100 µM (inactive) | > 100 µM (inactive) | – | – | > 100 µM (inactive)
14 | COC(=O)C1=C(C(=O)OC)SC(=C(/N=N/c2ccccc2)c2ccccc2)S1 | > 100 µM (inactive) | > 100 µM (inactive) | > 100 µM (inactive) | – | > 100 µM (inactive) | > 100 µM (inactive) | 61.2 µM (inactive) | > 100 µM (inactive) | > 100 µM (inactive) | > 100 µM (inactive) | > 100 µM (inactive) | > 100 µM (inactive) | > 100 µM (inactive) | > 100 µM (inactive) | > 100 µM (inactive) | > 100 µM (inactive) | > 100 µM (inactive) | 45.8 µM (inactive) | > 100 µM (inactive)
15 | CC1(CO)C(O)CCC2(C)C1CCC1CC3CC12CCC3(O)CO (configuration not stated) | > 100 µM (inactive) | 2.84 µM (inactive) | > 100 µM (inactive) | 6.67 µM (inactive) | > 79.1 µM (inactive) | 4.53 µM (inactive) | > 88.3 µM (inactive) | 7.6 µM (inactive) | 5.12 µM (inactive) | > 51.8 µM (inactive) | 2.9 µM (inactive) | 5.83 µM (inactive) | 2.31 µM (inactive) | 8.36 µM (inactive) | > 100 µM (inactive) | 25.3 µM (inactive) | – | – | 3.15 µM (inactive)
16 | CCOC(=O)Nc1ccc(S(=O)(=O)OC)cc1.CCOC(=O)Nc1ccc(S(=O)(=O)OC)cc1.NC(=O)NCCO | 41.9 µM (inactive) | 23.3 µM (inactive) | > 50 µM (inactive) | – | > 50 µM (inactive) | 23 µM (inactive) | > 50 µM (inactive) | > 50 µM (inactive) | > 50 µM (inactive) | > 50 µM (inactive) | 21.2 µM (inactive) | > 50 µM (inactive) | 17.1 µM (inactive) | > 50 µM (inactive) | 30.9 µM (inactive) | > 50 µM (inactive) | 48 µM (inactive) | 42.4 µM (inactive) | 48.6 µM (inactive)
